From DBAASP come the findings set out here.

In brackets after ≈: the same amount, converted by molar mass. A value given as a limit tells only on which side of the number the result lay.

Holding throughout (assay): ≥ marks a high value that may be exact or a test limit, other limits are often not marked, values filed in µg/mL are converted to µM
The test system of test [1] is Candida albicans NCYC 1467.
For test [2], the system named is Enterococcus faecalis NCTC 12697.
The subject of test [3] is Escherichia coli NCTC 10418.
Test [4] deals with Klebsiella pneumoniae ATCC 43816.
The test system of test [5] is Pseudomonas aeruginosa ATCC 27853.
Test [6] concerns Staphylococcus aureus NCTC 10788.
Test [7] concerns Staphylococcus aureus NCTC 12493.
Test [8] concerns Pseudomonas aeruginosa Ps4.
The test system of test [9] is Clavibacter michiganensis subsp. michiganensis DSM 46294.
The subject of test [10] is Pectobacterium carotovorum subsp. carotovorum DSM 30168.
The subject of test [11] is Pseudomonas corrugata DSM 7228.
Test [12] deals with Pseudomonas syringae pv. syringae DSM 10604.
Test [13] deals with Pseudomonas syringae pv. tomato DC3000.
Test [14] concerns Staphylococcus aureus 90857.
For test [15], the system named is Xanthomonas vesicatoria DSM 50861.
The subject of the next test is Escherichia coli JM109.
For test [16], the system named is Staphylococcus aureus ATCC 6538P.
The subject of a further test is Staphylococcus aureus.

In general, MIC refers to the lowest concentration that inhibits growth of the organism. Read a low MIC as inhibition by little substance. `CC[C@H](C)[C@H](NC(=O)[C@H](C)NC(=O)[C@H](C)NC(=O)[C@@H]1CCCN1C(=O)[C@@H](NC(=O)[C@H](CC(C)C)NC(=O)[C@H](CCCCN)NC(=O)CNC(=O)[C@H](C)NC(=O)[C@H](CS)NC(=O)[C@H](CCCCN)NC(=O)[C@H](CCCCN)NC(=O)[C@H](CO)NC(=O)[C@@H](NC(=O)[C@H](CCCCN)NC(=O)[C@H](CS)NC(=O)[C@@H](NC(=O)[C@H](CCCCN)NC(=O)[C@H](CC(C)C)NC(=O)[C@@H](NC(=O)[C@H](C)NC(=O)CNC(=O)[C@H](CC(C)C)NC(=O)[C@@H](N)Cc1ccccc1)C(C)C)C(C)C)[C@@H](C)CC)C(C)C)C(=O)O` [FLGAVLKVCKISKKCAGKLVPAAI]: the MIC in [1] is ≥ 128 µM; in test [2], ≥ 128 µM; in test [3] it was 16 µM (≈ 39.3 µg/mL); in test [4], ≥ 256 µM; in test [5] it was 128 µM (≈ 315 µg/mL); in test [6], ≥ 32 µM. Besides, the MIC in test [7] is ≥ 128 µM.

Regarding `CC[C@H](C)[C@@H]1NC(=O)[C@H](C)NC(=O)[C@@H](NC(=O)[C@H](Cc2ccccc2)NC(=O)[C@@H](NC(=O)[C@H](CCCCN)NC(=O)[C@@H]2CCCN2C(=O)[C@H](CC(C)C)NC(=O)[C@@H](N)Cc2ccccc2)[C@@H](C)CC)CSSC[C@@H](C(=O)O)NC(=O)[C@H](CCCCN)NC(=O)[C@H](CCCCN)NC(=O)[C@H]([C@@H](C)O)NC1=O` [FLPKIFCAITKKC], the MIC in [1] was ≥ 512 µM; in test [2], ≥ 512 µM; in test [3] it was ≥ 256 µM; in test [4], ≥ 512 µM; in [5], > 512 µM; in [6], ≥ 256 µM. For the same compound, the MIC in test [7] is ≥ 256 µM.

In the case of `CC[C@H](C)[C@H](NC(=O)[C@H](C)NC(=O)[C@H](CO)NC(=O)[C@@H](NC(=O)[C@H](C)NC(=O)[C@H](CCCCN)NC(=O)[C@@H]1CCCN1C(=O)[C@@H](NC(=O)[C@H](CC(C)C)NC(=O)[C@H](CO)NC(=O)[C@H](CC(C)C)NC(=O)[C@@H](N)Cc1ccccc1)[C@@H](C)CC)[C@@H](C)CC)C(=O)N[C@@H](CO)C(=O)N[C@@H](C)C(=O)N[C@@H](CC(C)C)C(=O)N[C@H](C(=O)N[C@@H](CC(N)=O)C(=O)N[C@@H](Cc1cnc[nH]1)C(=O)N[C@@H](Cc1ccccc1)C(N)=O)[C@@H](C)CC` [FLSLIPKAISAISALINHF], the MIC in test [1] was 4 µM (≈ 8.22 µg/mL); in test [2], ≥ 32 µM; in [3] it was ≥ 512 µM; in test [4] it was ≥ 512 µM; in test [5], > 512 µM; in test [6] it was 2 µM (≈ 4.11 µg/mL). Besides, the minimal inhibitory concentration (MIC) in test [7] was ≥ 32 µM.

Regarding `NC(=O)C[C@H](NC(=O)[C@H](CCCN=C(N)N)NC(=O)[C@H](CCCN=C(N)N)NC(=O)[C@H](Cc1c[nH]c2ccccc12)NC(=O)[C@@H](N)Cc1ccccc1)C(=O)N[C@@H](Cc1ccccc1)C(=O)N[C@@H](Cc1c[nH]c2ccccc12)C(=O)N[C@@H](CCCN=C(N)N)C(=O)N[C@@H](CCCN=C(N)N)C(N)=O` [FWRRNFWRR], the MIC in test [8] is ≥ 176 µM.

As for `NC(=O)[C@H](CCCN=C(N)N)NC(=O)[C@H](Cc1c[nH]c2ccccc12)NC(=O)[C@H](CCCN=C(N)N)NC(=O)[C@H](Cc1c[nH]c2ccccc12)NC(=O)[C@H](CCCN=C(N)N)NC(=O)[C@H](Cc1c[nH]c2ccccc12)NC(=O)[C@@H](N)Cc1ccccc1` [FWRWRWR], the MIC in [8] is ≥ 52.4 µM.

Turning to `CC[C@H](C)[C@H](NC(=O)[C@H](CCCCN)NC(=O)[C@H](CO)NC(=O)[C@H](Cc1c[nH]c2ccccc12)NC(=O)[C@H](CC(C)C)NC(=O)CN)C(=O)N[C@@H](CCCCN)C(=O)N[C@@H](CC(=O)O)C(=O)N[C@@H](C)C(=O)N[C@@H](C)C(=O)N[C@@H](CCCCN)C(=O)N[C@H](C(=O)N[C@@H](C)C(=O)NCC(=O)N[C@@H](CCCCN)C(=O)N[C@@H](C)C(=O)N[C@@H](C)C(=O)N[C@@H](CC(C)C)C(=O)NCC(=O)N[C@@H](Cc1ccccc1)C(=O)N[C@H](C(=O)N[C@@H](CC(N)=O)C(=O)N[C@@H](CCC(=O)O)C(=O)N[C@@H](CCSC)C(=O)N[C@H](C(N)=O)C(C)C)C(C)C)[C@@H](C)O` [GLWSKIKDAAKTAGKAALGFVNEMV], the MIC in test [1] was ≥ 64 µM; in [2] it was 16 µM (≈ 41.7 µg/mL); in test [3], 8 µM (≈ 20.8 µg/mL); in test [4], 8 µM (≈ 20.8 µg/mL); in test [5] it was 16 µM (≈ 41.7 µg/mL); in test [6] it was 16 µM (≈ 41.7 µg/mL). In addition, in test [7], the MIC was ≥ 32 µM.

On to `CC(C)C[C@H](NC(=O)[C@H](Cc1ccccc1)NC(=O)[C@H](CC(C)C)NC(=O)[C@H](CCCN=C(N)N)NC(=O)[C@H](CC(C)C)NC(=O)[C@H](Cc1ccccc1)NC(=O)[C@H](CC(C)C)NC(=O)[C@H](CCCN=C(N)N)NC(=O)[C@H](Cc1ccccc1)NC(=O)[C@H](CC(C)C)NC(=O)[C@H](CCCN=C(N)N)NC(=O)[C@H](Cc1ccccc1)NC(=O)[C@H](CC(C)C)NC(=O)[C@H](Cc1ccccc1)NC(=O)[C@H](CC(C)C)NC(=O)[C@H](CCCN=C(N)N)NC(=O)[C@H](CCCN=C(N)N)NC(=O)[C@@H](N)CCCCN)C(=O)N[C@@H](CCCCN)C(=O)N[C@@H](CCCCN)C(N)=O` [KRRLFLFRLFRLFLRLFLKK], for which the MIC in test [9] came to 0.922 µM (≈ 2.5 µg/mL); in [10], 3.69 µM (≈ 10 µg/mL); in [11], 3.69 µM (≈ 10 µg/mL); in [12], 3.69 µM (≈ 10 µg/mL); in [13] it was 1.84 µM (≈ 5 µg/mL); in test [14], 4 µM (≈ 10.8 µg/mL). Also, in test [15], the MIC came out at 0.922 µM (≈ 2.5 µg/mL).

For the compound `CC[C@H](C)[C@H](NC(=O)[C@H](C)NC(=O)[C@H](CC(C)C)NC(=O)[C@H](CCCN=C(N)N)NC(=O)[C@H](CC(C)C)NC(=O)[C@@H](NC(=O)[C@H](CCCN=C(N)N)NC(=O)[C@H](CC(C)C)NC(=O)[C@@H](NC(=O)[C@H](CC(C)C)NC(=O)[C@H](CCCN=C(N)N)NC(=O)[C@H](CCCN=C(N)N)NC(=O)[C@@H](N)CCCCN)[C@@H](C)CC)[C@@H](C)CC)C(=O)N[C@@H](CCCN=C(N)N)C(=O)N[C@@H](C)C(=O)N[C@@H](CC(C)C)C(=O)N[C@H](C(=O)N[C@@H](CCCCN)C(=O)N[C@@H](CCCCN)C(=O)N[C@@H](CCCN=C(N)N)C(N)=O)C(C)C` [KRRLILRILRLAIRALVKKR], the MIC in [9] was 0.101 µM (≈ 0.25 µg/mL); in [10], 4.02 µM (≈ 10 µg/mL); in test [11], 2.01 µM (≈ 5 µg/mL); in [12], 2.01 µM (≈ 5 µg/mL); in test [13] it was 4.02 µM (≈ 10 µg/mL); in test [14] it was 4 µM (≈ 9.94 µg/mL). Moreover, in test [15], the MIC turned out to be 0.101 µM (≈ 0.25 µg/mL).

On to `CC[C@H](C)[C@H](NC(=O)[C@H](C)NC(=O)[C@H](CC(C)C)NC(=O)[C@H](CS)NC(=O)[C@H](Cc1cnc[nH]1)NC(=O)[C@H](C)NC(=O)[C@H](C)NC(=O)[C@H](CS)NC(=O)[C@@H](N)CC(C)C)C(=O)N[C@@H](CCCN=C(N)N)C(=O)N[C@@H](CCCN=C(N)N)C(=O)N[C@@H](CCCN=C(N)N)C(N)=O` [LCAAHCLAIRRR], for which the MIC with Escherichia coli JM109 is 17.4 µM; in [16], 5.42 µM; against Staphylococcus aureus, > 46.3 µM.

With `CC[C@H](C)[C@H](NC(=O)[C@H](CCCN=C(N)N)NC(=O)[C@H](CCCN=C(N)N)NC(=O)[C@H](CC(C)C)NC(=O)[C@H](Cc1ccccc1)NC(=O)[C@H](CCCN=C(N)N)NC(=O)[C@@H](N)CC(C)C)C(=O)N[C@@H](CC(C)C)C(=O)N[C@@H](CCCN=C(N)N)C(=O)N[C@@H](CCCN=C(N)N)C(=O)N[C@@H](CC(C)C)C(=O)N[C@@H](CC(C)C)C(N)=O` [LRFLRRILRRLL], the MIC in test [9] came out at 0.308 µM (≈ 0.5 µg/mL); in test [10], 1.54 µM (≈ 2.5 µg/mL); in test [11], 0.308 µM (≈ 0.5 µg/mL); in test [12] it was 0.308 µM (≈ 0.5 µg/mL); in test [13] it was 0.615 µM (≈ 0.999 µg/mL); in test [14] it was 0.625 µM (≈ 1.02 µg/mL). This compound also had a minimum inhibitory concentration (MIC) in [15] of 0.308 µM (≈ 0.5 µg/mL).

For the compound `CC(C)C[C@H](NC(=O)[C@H](CCCN=C(N)N)NC(=O)[C@H](CCCCN)NC(=O)[C@H](CCCCN)NC(=O)[C@@H](N)CCCN=C(N)N)C(=O)N[C@@H](CCCCN)C(=O)N[C@H](C(=O)N[C@H](C(=O)N[C@@H](CCCCN)C(=O)N[C@@H](CCCN=C(N)N)C(=O)N[C@@H](CC(C)C)C(=O)N[C@H](C(N)=O)C(C)C)C(C)C)C(C)C` [RKKRLKVVKRLV], the minimal inhibitory concentration (MIC) is 6.57 µM (≈ 9.99 µg/mL) in [9]; 6.57 µM (≈ 9.99 µg/mL) in [10]; 6.57 µM (≈ 9.99 µg/mL) in test [11]; 3.28 µM (≈ 5 µg/mL) in test [12]; 1.64 µM (≈ 2.5 µg/mL) in [13]; ≥ 62.5 µM in test [14]. The MIC in test [15] turned out to be 6.57 µM (≈ 9.99 µg/mL).
